A value given as a limit tells only on which side of the number the result lay.

The target of experiment [1] is Carbonic anhydrase 1 (Homo sapiens, UniProt P00915). The experiment in a line: Inhibition of recombinant human carbonic anhydrase 1 incubated for 6 hrs prior to testing measured for 10 to 100 secs by phenol red-based stopped-flow CO2 hydration assay.
The target of experiment [2] is Carbonic anhydrase 9 (Homo sapiens, UniProt Q16790). Description: Inhibition of recombinant human carbonic anhydrase 9 incubated for 6 hrs prior to testing measured for 10 to 100 secs by phenol red-based stopped-flow CO2 hydration assay.
Experiment [3] relates to MCF7. The experiment in a line: Cytotoxicity against human MCF7 cells assessed as reduction in cell viability incubated for 48 hrs by MTT assay. The class given is functional, cell-based. The conditions noted are these: MCF7, 48 h. (Tetrazolium assays rely on reduction of a dye to a coloured formazan, in cell work by metabolically active cells.)
In experiment [4] the test system is A549. Description: Cytotoxicity against human A549 cells assessed as reduction in cell viability incubated for 48 hrs by MTT assay. The class given is functional, cell-based. The settings on record: A549, 48 h.
The test system of experiment [5] is HeLa. The experiment in a line: Cytotoxicity against human HeLa cells assessed as reduction in cell viability incubated for 48 hrs by MTT assay. It counts as functional, cell-based.
Experiment [6] deals with Carbonic anhydrase 2 (Homo sapiens, UniProt P00918). The experiment in a line: Inhibition of recombinant human carbonic anhydrase 2 incubated for 6 hrs prior to testing measured for 10 to 100 secs by phenol red-based stopped-flow CO2 hydration assay.

Carbonic anhydrase 1, sequence (P00915 whole entry): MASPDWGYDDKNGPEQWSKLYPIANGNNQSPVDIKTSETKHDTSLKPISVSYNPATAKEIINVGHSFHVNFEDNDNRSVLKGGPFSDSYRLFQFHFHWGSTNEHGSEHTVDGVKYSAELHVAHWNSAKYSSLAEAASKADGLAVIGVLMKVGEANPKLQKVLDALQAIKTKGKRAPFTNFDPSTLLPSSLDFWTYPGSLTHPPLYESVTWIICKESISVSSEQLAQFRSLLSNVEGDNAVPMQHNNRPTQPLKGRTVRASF

As usually defined, the Ki is the equilibrium dissociation constant of an inhibitor or competing ligand from its target. The term IC50 denotes the point on the concentration scale where inhibition reaches its midpoint. As to `O=S1(=O)C=Cc2cc(-c3cc(Cl)cc(Cl)c3)cnc2O1`, the Ki in experiment [1] is greater than 100 µM; in experiment [2] it was 0.0569 µM; in experiment [6], greater than 100 µM. Further, the IC50 in experiment [3] was found to be 20 µM; in experiment [4], 14 µM; in experiment [5] it was 4.8 µM.

In the case of `O=S1(=O)C=Cc2cccnc2O1`, the Ki in experiment [1] turned out to be 64.1 µM; in experiment [2], 0.169 µM; in experiment [6], 14 µM.

In the case of `O=S1(=O)C=Cc2cc(-c3ccc(OC(F)(F)F)cc3)cnc2O1`, the results for the Ki in experiment [1], in experiment [2] and in experiment [6] were greater than 100 µM, 0.2 µM and greater than 100 µM, respectively.

Turning to `COc1cccc(-c2cnc3c(c2)C=CS(=O)(=O)O3)c1`, the results for the Ki in experiment [1], in experiment [2] and in experiment [6] were greater than 100 µM, 0.137 µM and greater than 100 µM, respectively.

`O=S1(=O)C=Cc2cc(-c3ccc(Cl)cc3)cnc2O1`: the figures for the Ki in experiment [1], in experiment [2] and in experiment [6] were greater than 100 µM, 0.0863 µM and greater than 100 µM, respectively.

As for `COc1ccc(-c2cnc3c(c2)C=CS(=O)(=O)O3)cc1`, the results for the Ki in experiment [1], in experiment [2] and in experiment [6] were greater than 100 µM, 0.0868 µM and greater than 100 µM, respectively.

For the molecule `O=S1(=O)C=Cc2cc(-c3cccc4ccccc34)cnc2O1`, the Ki in experiment [2] was determined as 0.221 µM.

`CC(C)(C)c1ccc(-c2cnc3c(c2)C=CS(=O)(=O)O3)cc1`: the Ki in experiment [2] is 0.0314 µM. Also, the values for the IC50 in experiment [3], in experiment [4] and in experiment [5] were greater than 500 µM, 149 µM and 171 µM, respectively.

Regarding `O=S1(=O)C=Cc2cc(-c3ccc(C(F)(F)F)cc3)cnc2O1`, the Ki in experiment [2] stood at 0.0701 µM. Moreover, the IC50 in experiment [3] was 75 µM; in experiment [4], 77 µM; in experiment [5], 42 µM.

As for `O=S1(=O)C=Cc2cc(-c3ccccc3)cnc2O1`, the results for the Ki in experiment [1], in experiment [2] and in experiment [6] were greater than 100 µM, 0.134 µM and greater than 100 µM, respectively.

Regarding `O=S1(=O)C=Cc2cc(-c3ccc(-c4ccccc4)cc3)cnc2O1`, the results for the Ki in experiment [1], in experiment [2] and in experiment [6] were greater than 100 µM, 0.21 µM and greater than 100 µM, respectively.

For the origin of these results see ChEMBL document CHEMBL4680262, “Development of oxathiino[6,5-b]pyridine 2,2-dioxide derivatives as selective inhibitors of tumor-related carbonic anhydrases IX and XII” (Eur J Med Chem, 2020).
